We go through four molecules from patent publication EP2050458A1, “IL24 for inducing hyperproliferative or autoimmune cell death” (INSTITUT NATIONAL DE LA SANTE ET DE LA RECHERCHE MEDICALE …, priority 2007, dated 2009).

Common to all, as to type: cell-based, human
The subject of one data set is CLL B-cells. As to the kind of experiment: Cell cycle analysis by Propidium Iodide staining and FACS. The settings on record: inhibitor added with IL24 to cells cultured overnight with IL2 (IL2+IL24+inhibitor); vs 3.36 ± 1.3% without inhibitor. The procedure:
For apoptosis studies, cells were stained either with the Apo 2.7-PE mAb (Beckman-Coulter, Villepinte, France) on ice for 15 min, washed and resuspended on 300 µl of PBS 1X supplemented with 0,1% BSA or with the Annexin V-FITC apoptosis detection kit (Becton Dickinson Biosciences, Le-Pont-de-Claix, France), 1x10^5 cells in 100 µl 1X binding buffer were stained with 5 µl of Annexin V-FITC and 5 µl Propidium Iodide (PI) in the dark for 15 min at room temperature (RT). 400 µl of 1X binding buffer was added before fluorescence-activated cell sorted (FACS) analysis. For cell cycle analysis 1x10^6 cells were washed with cold PBS1X and resuspended in 1ml EtOH 70% and kept on ice for at least 10 min. Cells were then centrifuged and the pellet resuspended in 1ml PBS 1X + RNAse (40 µg) Saint-Quentin Fallavier, France) + Propidium Iodide (18 µl) at room temperature. […]
Fluorescence was measured using a FACScan flow cytometer (BD Biosciences), and data analysis was performed using CellQuest software (BD Biosciences).
It was next determined whether the inhibition of thymidine incorporation by B-cells reflected cell cycle block and/or apoptosis. […] The respective percentages of hypodiploid (apoptotic) cells, and of cells in G0-G1, S and G2-M cell cycle phase, and finally of hyperdiploid cells were evaluated (M1 to M4 populations respectively in figure 3a). […]

A further data set deals with P-stat3. Put plainly: Stat3 phosphorylation (Phospho-Y705 stat3) by western blot and immunostaining in CLL cells. How it is done:
For pervanadate experiments, fresh CLL cells were preincubated or not with IL2 overnight, then incubated or not with pervanadate 25 µM during 5 min and stimulated or not with IL24 for 10 min and lysed as previously described. Blots were hybridyzed with anti phospho-Tyr 705-STAT3 (B-7) MAb (Tebu-bio), dehybridyzed and reblotted with anti STAT3 MAb (BD Transduction Laboratories).
Stat3 was strongly and stably phosphorylated in cells incubated overnight with IL2 as evidenced by hybridization with an anti Phospho-Y705 stat3 MAb. In contrast, phospho(P)-stat5 disappeared and total stat5 diminished in the cytosol of cells incubated overnight with IL2, presumably due to dimerization and translocation to the nucleus (Paukku et al. Cytokine Growth Factor Rev. 2004. 6:435-55).
Cells were therefore incubated or not for 5 min with […] pervanadate (PV), an inhibitor of protein tyrosine phosphatase activity (Heffetz and Bushkin H. J Biol Chem. 1990. 265:2896-902) and stimulated 10 min with IL24 on cells preincubated or not with IL2. Cytospin and western blot experiments were performed.
Troglitazone (TG) is an activator of protein-tyrosine phosphatase (PTP)-1B that reduced P-Y705-stat3 and promoted apoptosis in human primary gliomas (Akasaki et al. J Biol Chem. 2005. 281:6165-74). TG was therefore used to determine if it is able to stimulate p53 expression and apoptosis in CLL. […]
(In general: In western blotting, separated proteins are transferred to a membrane and probed.)

A further data set has as its system CLL cells. As to the kind of experiment: CLL cell survival in culture (trypan blue cell count, cell cycle analysis). The settings on record: culture for > 30 min. The procedure:
• Figure 1. rIL24 protects CLL B-cells from death in culture. • a) CLL cells (2x10^6/ml) were cultured in complete medium (•) or with 100 ng/ml rIL24 (▲) every 7 days and cells counted using trypan blue exclusion. % living cells was calculated in each sample (mean ± SD, n=8). b) Cell scatter, Apoptosis shown by Apo 2.7-PE staining, and cell cycle shown by PI staining from one representative sample (CLL 70) at day 21. M1: hypodiploid (apoptotic cells) M2: cells into G0/G1, M3: cells into S+G2+M, M4: hyperdiploid cells. • Figure 2. rIL24 inhibits thymidine incorporation in activated CLL cells. • a) IL24 was added to IL2-cultured cells as in figure 1, one day before (d-1) at the same time (d0) or one day after (d=1) IL2. b) IL24 was added to CLL cells cultured for 24 h with IL2, IL2+CD40-Ligand or anti-IgM+CD40-Ligand. Tymidine (0.5 mCi/ml) was added at day 3 for 15 h. […] Mean ± SD (n=8) of the M1 to M4 populations calculated as in (a) from CLL cells cultured with IL2 (hatched histogram) or IL2 then IL24 (white histogram). […] RNA was extracted at day 3, reverse-transcribed, amplified and analyzed by real-time PCR. […]

Where a SMILES comes first, the peptide text is derived from it. The star is where a group is joined. Cbz = O=C(OCc1ccccc1)*; CH2F = FC*

As to `Cc1ccc(C(=O)Cn2c3c(sc2=N)CCCC3)cc1` [Pft-a, Pifithrin], the “cells in S/G2/M” value with CLL B-cells came out at 6.44 ± 2.2%.
As for `Cc1c(C)c2c(c(C)c1O)CCC(C)(COc1ccc(CC3SC(=O)NC3=O)cc1)O2` (centres unmarked) [TG, Troglitazone], the “total Stat3 expression” value with P-stat3 (IL2-cultured CLL cells) was “no effect”.
With `COC(=O)C[C@H](NC(=O)[C@H](C)NC(=O)[C@@H](NC(=O)OCc1ccccc1)C(C)C)C(=O)CF` [zvad, ZVAD-fmk] (Cbz-Val-Ala-Asp(OMe)-CH2F), the “cells in S/G2/M” value in the data set with CLL B-cells is given as 4.8 ± 1.77%.
In the case of pervanadate [PV], the “IL24-mediated inhibition of P-Stat3” value in the data set with P-stat3 (5 min with 25 µM pervanadate, then 10 min IL24) is listed as “antagonized”. Further, in the data set with CLL cells, the toxicity in culture result was “too toxic”.
